Drawing on PubChem BioAssay AID1949 (Southern Research Institute, 2009), this text covers IC50 for 103 molecules.

The structures appear in SMILES notation. In brackets after ≈: the same amount, converted by molar mass. Inconclusive results are not listed. Activity calls are given as the source filed them. No rule for the calls is given here.

This assay has as its system M. tuberculosis H37Rv growth inhibition. Description: Mycobacterium tuberculosis H37Rv growth inhibition, cell based, confirmatory dose response (AID 1949).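 Also: bacteria grown 7 days with compound before Alamar blue readout.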

`CC(C)(C)NC(=O)c1cc2cc(Cl)cc(Cl)c2oc1=O`: the IC50 was 2.54 µg/mL (≈ 8.08 µM).
Under `Cc1ccc(CSCC(=O)Nc2ccccc2)cc1` stands 2.88 µg/mL (≈ 10.6 µM); under `COC(=O)Cc1c(C)c2ccc(OCC(=O)c3ccc(Cl)s3)cc2oc1=O`, 2.49 µg/mL (≈ 6.12 µM).
As for `CCC(=O)NC(=S)Nc1ccc(C(C)C)cc1`, the IC50 was less than 0.1 µg/mL.
Under `COC(=O)Cc1c(C)c2ccc(OCC(=O)Nc3cc(C)cc(C)c3)cc2oc1=O` stands 0.2 µg/mL (≈ 0.488 µM); under `Cc1ccc(OC(=O)c2ccc3nc(C)sc3c2)cc1`, > 50 µg/mL (inactive).
Take `Cc1cc(OCCCn2ccnc2)ccc1Cl`: the IC50 is 1.94 µg/mL (≈ 7.74 µM).
Regarding `COc1ccc2nc(Nc3nc(C)c(C)c(=O)[nH]3)nc(C)c2c1`, the IC50 is > 50 µg/mL (inactive).
As for `CC(=O)c1c(C)nc(-c2ccc(Cl)c(Cl)c2)n1O`, the IC50 is 17.4 µg/mL (≈ 60.9 µM).
On to `CC(=O)NC(=S)NNC(=O)c1ccc(C(C)(C)C)cc1`, for which the IC50 was 0.29 µg/mL (≈ 0.988 µM).
Under `CC(C)(C)c1ccc(C(=O)Nc2ccc(NC(=S)NC(=O)c3cccs3)cc2)cc1` stands 0.46 µg/mL (≈ 1.05 µM); under `N#Cc1c(SCC(=O)OCc2ccccc2)nsc1SCC(=O)OCc1ccccc1`, 8.73 µg/mL (≈ 18.6 µM); under `COC(=O)COc1cccc(NC(=O)c2ccc(Cl)cc2)c1`, 0.21 µg/mL (≈ 0.657 µM).
For the molecule `CCc1nc2ccccc2n1CC(O)COc1ccc(Br)cc1` (stereo not drawn), the IC50 was 4.11 µg/mL (≈ 11 µM).
Under `COc1cccc(N2CCN(C(=O)Nc3ccc(Cl)c(Cl)c3)CC2)c1` stands 9.41 µg/mL (≈ 24.7 µM).
Under `Cc1cc(C(=O)Oc2ccc(Cc3ccccc3)cc2)ccc1[N+](=O)[O-]` stands 2.23 µg/mL (≈ 6.42 µM); under `COc1ccc(C(=O)CCNc2cccc(C)c2)cc1`, 8.33 µg/mL (≈ 30.9 µM).
Under `C=C(C)CN1CCN(c2nc(NCc3ccco3)c3ccccc3n2)CC1` stands 4.56 µg/mL (≈ 12.5 µM); under `Cc1ccccc1NC(=O)c1ccccc1NC(=S)NC(=O)c1cccnc1`, 1.3 µg/mL (≈ 3.33 µM).
Regarding `O=C(CC(O)(C(F)(F)F)C(F)(F)F)Nc1ccc(Oc2ccccc2)cc1`, the IC50 was 7.49 µg/mL (≈ 19 µM).
Under `O=C(Nc1ccncc1)c1ccc2nc(-c3ccccc3)c(-c3ccccc3)nc2c1` stands 4.64 µg/mL (≈ 11.5 µM); under `O=C(NC(=S)Nc1ccc(F)cc1)c1ccc(Br)cc1`, 0.95 µg/mL (≈ 2.69 µM).
Turning to `CC1=NN(C(=S)Cc2ccccc2)C(C)(O)C1` (stereo not drawn), the half-inhibitory concentration (IC50) is 2.79 µg/mL (≈ 11.2 µM).
With `O=[N+]([O-])c1nn(-c2ccccc2)[n+]([O-])c1N1CCCC1`, the IC50 is 11.9 µg/mL (≈ 43.1 µM).
Take `COc1ccc(-c2nn(-c3ccccc3)cc2CNCc2ccccc2)cc1`: the IC50 was 6.04 µg/mL (≈ 16.3 µM).
Under `Nc1ccc2nc(SCC(=O)Nc3cccc(Cl)c3)sc2c1` stands > 50 µg/mL (inactive); under `O=C(Oc1cccc2cccnc12)c1cccc([N+](=O)[O-])c1`, 10.8 µg/mL (≈ 36.7 µM); under `CC(=O)c1ccc(NCCC(=O)c2ccco2)cc1`, 2.8 µg/mL (≈ 10.9 µM).
Consider `COc1cc(OC)cc(C(=O)NC(=S)N2CCCCCC2)c1`, for which the IC50 is 2.83 µg/mL (≈ 8.78 µM).
Under `O=C(c1ccc2ccccc2c1)N(C1CCCCC1)C1CCCCC1` stands 43 µg/mL (≈ 128 µM); under `COC(=O)C1=C(C)NC2=C(C(=O)CC(c3ccccc3)C2)C1c1ccccc1Br` (stereo not drawn), 7.5 µg/mL (≈ 16.6 µM).
Consider `CCOC(=O)c1c(C)n(Cc2ccccc2)c2ccc(OCC(O)CNC(C)(C)C)cc12` (stereo not drawn), for which the IC50 was 4.28 µg/mL (≈ 9.76 µM).
Under `O=C(CC12CC3CC(CC(C3)C1)C2)Nc1ccc2ccccc2c1` stands less than 0.1 µg/mL.
Under `CCCc1cc2c(-c3ccccc3)cc(=O)oc2cc1OCC` stands > 50 µg/mL (inactive).
As for `Oc1ccc(-c2nc3cc4ccccc4cc3nc2-c2ccccc2)cc1`, the IC50 is 0.96 µg/mL (≈ 2.76 µM).
On to `Cc1ccc(SCC(=O)Nc2ccc(C)c([N+](=O)[O-])c2)cc1`, for which the IC50 is 2.18 µg/mL (≈ 6.89 µM).
On to `Cc1ccc2[nH]c3c(c2c1)CCCC3NCC(O)Cc1ccccc1` (stereo not drawn), for which the IC50 is 6.03 µg/mL (≈ 18 µM).
`CCC(C)c1ccc(OCC(=O)NC2C3CC4CC(C3)CC2C4)cc1` (stereo not drawn): the IC50 was 7.97 µg/mL (≈ 23.3 µM).
Under `CCn1nnc(NC(=O)COc2ccc(C3CCCCC3)cc2)n1` stands 2.04 µg/mL (≈ 6.19 µM); under `CCOC(=O)COc1ccc2c(=O)c(Oc3ccccc3Cl)coc2c1`, 2.08 µg/mL (≈ 5.55 µM); under `O=C(CC(O)(C(F)(F)F)C(F)(F)F)Nc1cccc(C(F)(F)F)c1`, 3.59 µg/mL (≈ 9.72 µM).
Under `CCOc1ccccc1C(=O)Nc1ccccc1O` stands 8.93 µg/mL (≈ 34.7 µM); under `COc1ccc(OC(=O)c2sc3ccccc3c2Cl)cc1`, > 50 µg/mL (inactive); under `O=C(Oc1ccc(Cl)c2cccnc12)c1ccc(Cl)cc1Cl`, 11.6 µg/mL (≈ 32.9 µM).
For `O=C(Nc1cccc(C(F)(F)F)c1)c1ccc(Cn2cc(Cl)cn2)cc1`, the IC50 was 5.67 µg/mL (≈ 14.9 µM).
As for `O=C1c2ccccc2C2=Nc3cc(Cl)ccc3OC12O` (stereo not drawn), the IC50 is 5.5 µg/mL (≈ 19.3 µM).
Under `COC(=O)CSc1nnc(-c2ccc(Cl)cc2)o1` stands less than 0.1 µg/mL; under `Cc1ccc(OCC(=O)NC23CC4CC(CC(C4)C2)C3)cc1C`, 3.77 µg/mL (≈ 12 µM).
Under `Clc1ccc(-c2nnc(SCc3ccon3)o2)c(Cl)c1` stands 0.79 µg/mL (≈ 2.41 µM).
Under `O=C(NC1CCCCC1)N1CCN(Cc2ccc3c(c2)OCO3)CC1` stands 0.39 µg/mL (≈ 1.13 µM); under `CCc1c(C)sc(NC(=S)N2CCN(CC)CC2)c1C(=O)OC`, 16.3 µg/mL (≈ 45.8 µM).
In the case of `CCOc1ccc(S(=O)(=O)Nc2ccc(C(F)(F)F)cc2)cc1`, the IC50 is 6.25 µg/mL (≈ 18.1 µM).
Consider `CC1CCc2c(sc3ncn(C(C)C(=O)OCc4ccccc4)c(=O)c23)C1` (stereo not drawn), for which the IC50 was 1.53 µg/mL (≈ 4 µM).
Under `O=C(COc1ccc(Br)cc1)Nc1ccccc1F` stands 29.5 µg/mL (≈ 91.1 µM); under `COc1ccc(C(=O)CCN2CCN(c3ccccc3F)CC2)cc1`, 5.64 µg/mL (≈ 16.5 µM).
Under `Cc1ccc2nc(SCc3ccc4ccccc4c3)[nH]c2c1` stands 11 µg/mL (≈ 36 µM).
In the case of `O=[N+]([O-])/C=C/c1ccccc1OCc1cccc(F)c1`, the IC50 was 6.26 µg/mL (≈ 22.9 µM).
Turning to `COc1cc(/C=C/[N+](=O)[O-])cc(Cl)c1OCc1ccccc1C#N`, the IC50 was 17.9 µg/mL (≈ 51.8 µM).
`CCOC(=O)COc1ccc(S(=O)(=O)N2CCC(C)CC2)cc1`: the IC50 was 1.35 µg/mL (≈ 3.95 µM).
Under `Cc1ccc(OCC(=O)c2ccc(Br)cc2)cc1C` stands 47.7 µg/mL (≈ 149 µM).
Under `C=CCn1c(NCc2cccc3ccccc23)nc2ccccc21` stands 3.16 µg/mL (≈ 10.1 µM); under `Cc1cc(C)cc(COc2ccc3c(C)c(CCC(=O)O)c(=O)oc3c2C)c1`, 0.32 µg/mL (≈ 0.841 µM); under `CC(=O)Oc1ccc2nc(-c3ccc(C)c(C)c3)oc(=O)c2c1`, > 50 µg/mL (inactive).
Under `Cc1ccc(C(=O)CCNc2ccc(F)cc2)cc1` stands > 50 µg/mL (inactive).
In the case of `COC(=O)c1ccc(OC(=O)c2ccc(C)c([N+](=O)[O-])c2)cc1`, the IC50 is > 50 µg/mL (inactive).
Under `CC(NC(=O)Nc1ccccc1O)(C(F)(F)F)C(F)(F)F` stands 11.2 µg/mL (≈ 35.5 µM).
Under `O=C(c1ccccc1)c1ccc2nc(-c3cccc(NC(=O)C4CC4)c3)[nH]c2c1` stands 7.78 µg/mL (≈ 20.4 µM); under `Cc1ccc2nc(Cc3nc4ccc(C)cc4[nH]3)[nH]c2c1`, > 50 µg/mL (inactive); under `O=C(c1ccc(NC(=O)C2(c3ccccc3)CCCC2)cc1)N1CCCCC1`, 1.24 µg/mL (≈ 3.29 µM).
Under `Cc1cc(-c2csc(Nc3ccc(S(N)(=O)=O)cc3)n2)ccc1F` stands 2.34 µg/mL (≈ 6.44 µM); under `Cc1cc(OCCn2ccnc2)ccc1Cl`, 2.77 µg/mL (≈ 11.7 µM); under `Nc1nnc(Sc2ccc([N+](=O)[O-])c3ncccc23)s1`, 3.47 µg/mL (≈ 11.4 µM).
With `Cc1c(OC(=O)c2ccccc2Cl)ccc2c1CCCC2`, the half-inhibitory concentration (IC50) is 2.51 µg/mL (≈ 8.34 µM).
Under `COc1ccccc1C(=O)NNC(=S)NC(=O)c1cccs1` stands 0.15 µg/mL (≈ 0.447 µM); under `O=C(Nc1ccc(Cl)c(C(F)(F)F)c1)c1ccc2c(c1)OCO2`, > 50 µg/mL (inactive).
Under `Cc1cccc(OCCn2cnc3cc(C)c(C)cc32)c1` stands 4.52 µg/mL (≈ 16.1 µM).
On to `O=C(Cc1ccc(Cl)cc1)Nc1nc2ccc(Cl)cc2s1`, for which the concentration for half-maximal inhibition (IC50) was 3.22 µg/mL (≈ 9.55 µM).
`Cc1cc(NC(=O)CSc2nnnn2-c2ccccc2C)no1`: the IC50 was 1.41 µg/mL (≈ 4.27 µM).
Under `O=C(Nc1cccc(C(F)(F)F)c1)N1CCN(c2cccc(C(F)(F)F)c2)CC1` stands 5.09 µg/mL (≈ 12.2 µM).
Take `O=C(CSc1nnc(SCc2cccc3ccccc23)s1)Nc1ccccc1F`: the IC50 is 1.45 µg/mL (≈ 3.28 µM).
Under `Cn1c(Sc2ccc([N+](=O)[O-])c3cccnc23)nnc1-c1ccccc1` stands 0.8 µg/mL (≈ 2.2 µM); under `O=C(NCCC1=CCCCC1)Nc1ccc([N+](=O)[O-])cc1`, 11.6 µg/mL (≈ 40 µM); under `COc1ccc(OC)c(NC(=O)c2cc3cc(Br)ccc3oc2=O)c1`, 0.2 µg/mL (≈ 0.495 µM).
Under `NC(N)=N/N=C/c1ccc(OCc2ccc(Cl)cc2Cl)cc1` stands 11 µg/mL (≈ 32.6 µM); under `CC1CCCc2sc(NC(=S)NC(=O)c3ccccc3)c(C#N)c21` (stereo not drawn), 0.94 µg/mL (≈ 2.64 µM); under `CCOC(=O)COc1ccc2ccccc2c1/C=C(\C)[N+](=O)[O-]`, 0.5 µg/mL (≈ 1.59 µM).
Under `CCOC(=O)C1=C(c2ccc(C)cc2)C(=O)c2ccccc2C1=O` stands 3.03 µg/mL (≈ 9.46 µM).
Regarding `Brc1ccc(Nc2nc(-c3ccccn3)cs2)cc1`, the IC50 is 0.13 µg/mL (≈ 0.391 µM).
Take `Nc1ncnc2c1[nH]c(=S)n2CCOc1cccc2ccccc12`: the IC50 was 10.9 µg/mL (≈ 32.5 µM).
Under `CC(=O)Oc1cc2c(cc1Cl)C1(CC(c3ccccc3Cl)O2)CC(C)(C)NC(=S)N1` (stereo not drawn) stands 2.84 µg/mL (≈ 6.1 µM); under `CC1(C)CC(=O)C2=C(C1)NC1=C(C(=O)c3ccccc31)C2c1ccc(C(F)(F)F)cc1` (stereo not drawn), 30.3 µg/mL (≈ 71.7 µM); under `Clc1cccc(Nc2nc(NCc3ccco3)c3ccccc3n2)c1`, 1.05 µg/mL (≈ 2.99 µM).
Under `Clc1ccc(OCc2ccccc2Cl)c(CNC2CCCCC2)c1` stands 2.51 µg/mL (≈ 6.89 µM); under `O=C(Nc1nnc(C2CCCCC2)s1)c1sc2ccccc2c1Cl`, 0.37 µg/mL (≈ 0.979 µM).
Under `O=C(COc1cccc2ccccc12)c1ccc(Cl)cc1` stands 34 µg/mL (≈ 115 µM); under `CC(C)(C)NCCCOc1ccc(Cl)cc1C(C)(C)C`, 23.3 µg/mL (≈ 78.2 µM); under `Cc1ccc(-c2nnc(SCC(=O)Nc3ccc([N+](=O)[O-])cc3)o2)cc1`, > 50 µg/mL (inactive).
`N#Cc1ccc(NC(=O)Nc2ccc(Cl)cc2)cc1`: the IC50 is 0.51 µg/mL (≈ 1.88 µM).
Under `COc1ccc(OCC(=O)N=Nc2c(O)[nH]c3c(Br)cc(C)cc23)c(Br)c1` stands 16.7 µg/mL (≈ 33.6 µM); under `Cc1ccc(-c2nnc(N3CCN(C(=O)c4ccc(Cl)cc4)CC3)c3ccccc23)cc1`, 3.65 µg/mL (≈ 8.24 µM); under `S=C(NCc1ccc(Cl)cc1)N1CCN(C/C=C/c2ccccc2)CC1`, 1.99 µg/mL (≈ 5.16 µM).
Turning to `O=Cc1ccc(Sc2nnc(-c3ccccc3)o2)o1`, the IC50 is 3.39 µg/mL (≈ 12.5 µM).
Under `CCOC(=O)Cn1cc(C#N)c2cccc(CC)c21` stands 0.87 µg/mL (≈ 3.39 µM).
